In ChEMBL document CHEMBL1255373, “In vitro antibacterial activity of CE-156811, a novel analog derived from hygromycin A” (2008):
Values after ≈ are worked out from the molar mass of the structure shown.

Assays:
Type in all cases: functional
Enterococcus faecium [1] = assay: Antibacterial activity against linezolid-resistant Enterococcus faecium 03B1074 by broth microdilution method
Staphylococcus aureus [2] = assay: Antibacterial activity against glycopeptide-intermediate Staphylococcus aureus clinical isolate by broth microdilution method
Enterococcus faecium [3] = assay: Antibacterial activity against linezolid-resistant Enterococcus faecium 03B1078 by broth microdilution method
Enterococcus faecium [4] = assay: Antibacterial activity against linezolid-resistant Enterococcus faecium 03B1077 by broth microdilution method
Klebsiella oxytoca = assay: Antibacterial activity against Klebsiella oxytoca clinical isolate by broth microdilution method
Streptococcus pyogenes [5] = assay: Bacteriostatic activity against Streptococcus pyogenes 02C0203 assessed as log reduction in bacterial growth at 1 to 8 times MIC after 24 hrs
Staphylococcus aureus [6] = assay: Bacteriostatic activity against methicillin-resistant Staphylococcus aureus 01A1095 assessed as log reduction in bacterial growth at 1 to 8 times MIC after 24 hrs
Enterococcus faecium [7] = assay: Antibacterial activity against linezolid-resistant Enterococcus faecium 03B1073 by broth microdilution method
Staphylococcus aureus [8] = assay: Antibacterial activity against methicillin-resistant Staphylococcus aureus 01A1095 by broth microdilution method
Streptococcus pneumoniae [9] = assay: Antibacterial activity against penicillin-nonsusceptible Streptococcus pneumoniae clinical isolate by broth microdilution method
Enterococcus faecalis [10] = assay: Antibacterial activity against vancomycin-resistant Enterococcus faecalis clinical isolate by broth microdilution method
Escherichia coli = assay: Antibacterial activity against Escherichia coli clinical isolate by broth microdilution method
Enterococcus faecium [11] = assay: Antibacterial activity against vancomycin-susceptible Enterococcus faecium clinical isolate by broth microdilution method
Citrobacter freundii = assay: Antibacterial activity against Citrobacter freundii clinical isolate by broth microdilution method
Klebsiella pneumoniae [12] = assay: Antibacterial activity against Klebsiella pneumoniae clinical isolate by broth microdilution method
Streptococcus pneumoniae [13] = assay: Antibacterial activity against Streptococcus pneumoniae 02J1046 by broth microdilution method
Klebsiella aerogenes = assay: Antibacterial activity against Enterobacter aerogenes clinical isolate by broth microdilution method
Streptococcus pneumoniae [14] = assay: Antibacterial activity against penicillin-susceptible Streptococcus pneumoniae clinical isolate by broth microdilution method
Morganella morganii = assay: Antibacterial activity against Morganella morganii clinical isolate by broth microdilution method
Streptococcus pneumoniae [15] = assay: Bacteriostatic activity against Streptococcus pneumoniae 02J1046 assessed as log reduction in bacterial growth at 1 to 8 times MIC after 24 hrs
Enterococcus faecium [16] = assay: Antibacterial activity against linezolid-resistant Enterococcus faecium 03B1075 by broth microdilution method
Enterococcus faecalis [17] = assay: Antibacterial activity against vancomycin-susceptible Enterococcus faecalis clinical isolate by broth microdilution method
Legionella pneumophila = assay: Antibacterial activity against Legionella pneumophila clinical isolate by broth microdilution method
Enterococcus faecium [18] = assay: Antibacterial activity against vancomycin-resistant Enterococcus faecium 03B1022 by broth microdilution method
Pseudomonas aeruginosa = assay: Antibacterial activity against Pseudomonas aeruginosa clinical isolate by broth microdilution method
[19] = test system: Staphylococcus epidermidis; assay: Antibacterial activity against methicillin-susceptible Staphylococcus epidermidis clinical isolate by broth microdilution method
Enterococcus faecalis [20] = assay: Antibacterial activity against linezolid-resistant Enterococcus faecalis 03A1128 by broth microdilution method
Staphylococcus = assay: Antibacterial activity against coagulase-negative Staphylococcus clinical isolate by broth microdilution method
Enterococcus faecium [21] = assay: Antibacterial activity against vancomycin-resistant Enterococcus faecium clinical isolate by broth microdilution method
Staphylococcus aureus [22] = assay: Antibacterial activity against linezolid-resistant Staphylococcus aureus 01A1220 by broth microdilution method
Neisseria sp. = assay: Antibacterial activity against Neisseria sp. by broth microdilution method
Acinetobacter sp. = assay: Antibacterial activity against Acinetobacter sp. by broth microdilution method
Klebsiella pneumoniae [23] = assay: Antibacterial activity against extended-spectrum beta-lactamase producing Klebsiella pneumoniae clinical isolate by broth microdilution method
Staphylococcus aureus [24] = assay: Antibacterial activity against methicillin-resistant Staphylococcus aureus clinical isolate by broth microdilution method
Staphylococcus aureus [25] = assay: Antibacterial activity against methicillin-susceptible Staphylococcus aureus clinical isolate by broth microdilution method
Enterococcus faecium [26] = assay: Bacteriostatic activity against vancomycin resistant Enterococcus faecium 03B1022 assessed as log reduction in bacterial growth at 1 to 8 times MIC after 24 hrs
Staphylococcus aureus [27] = assay: Antibacterial activity against linezolid-resistant Staphylococcus aureus 01A1221 by broth microdilution method
Providencia rettgeri = assay: Antibacterial activity against Providencia rettgeri clinical isolate by broth microdilution method
Serratia marcescens = assay: Antibacterial activity against Serratia marcescens clinical isolate by broth microdilution method
Citrobacter koseri = assay: Antibacterial activity against Citrobacter diversus clinical isolate by broth microdilution method
Listeria monocytogenes = assay: Antibacterial activity against Listeria monocytogenes clinical isolate by broth microdilution method
Streptococcus pyogenes [28] = assay: Antibacterial activity against Streptococcus pyogenes clinical isolate by broth microdilution method
Enterococcus faecalis [29] = assay: Antibacterial activity against […] Enterococcus faecalis ATCC 29212 by broth microdilution method
Moraxella catarrhalis = assay: Antibacterial activity against Moraxella catarrhalis clinical isolate by broth microdilution method
Haemophilus influenzae = assay: Antibacterial activity against Haemophilus influenzae clinical isolate by broth microdilution method
Proteus mirabilis = assay: Antibacterial activity against Proteus mirabilis clinical isolate by broth microdilution method
Streptococcus pyogenes [30] = assay: Antibacterial activity against Streptococcus pyogenes 02C0203 by broth microdilution method
Enterococcus faecium [31] = assay: Antibacterial activity against linezolid-resistant Enterococcus faecium 03B1076 by broth microdilution method
Shigella sp. = assay: Antibacterial activity against Shigella sp. by broth microdilution method
Corynebacterium sp. = assay: Antibacterial activity against Corynebacterium sp. by broth microdilution method
Staphylococcus aureus [32] = assay: Antibacterial activity against […] Staphylococcus aureus ATCC 29213 by broth microdilution method
Burkholderia cepacia = assay: Antibacterial activity against Burkholderia cepacia clinical isolate by broth microdilution method
Enterobacter cloacae = assay: Antibacterial activity against Enterobacter cloacae clinical isolate by broth microdilution method
[33] = test system: Stenotrophomonas maltophilia; assay: Antibacterial activity against Stenotrophomonas maltophilia clinical isolate by broth microdilution method
Proteus vulgaris = assay: Antibacterial activity against Proteus vulgaris clinical isolate by broth microdilution method
Salmonella sp. = assay: Antibacterial activity against Salmonella sp. by broth microdilution method

Compound: C/C(=C\c1cc(F)c(OC[C@H](F)C2CC2)cc1F)C(=O)N[C@@H]1[C@H](O)[C@@H](O)[C@H]2OCO[C@H]2[C@@H]1O
- MIC (Enterococcus faecium [1]): 4 µg/mL (≈ 8.45 µM)
- MIC (Staphylococcus aureus [2]): 0.125 µg/mL (≈ 0.264 µM)
- MIC (Enterococcus faecium [3]): 4 µg/mL (≈ 8.45 µM)
- MIC (Enterococcus faecium [4]): 2 µg/mL (≈ 4.22 µM)
- MIC50 (Klebsiella oxytoca): > 64 µg/mL
- MIC90 (Klebsiella oxytoca): > 64 µg/mL
- FC (Streptococcus pyogenes [5]): 1.5
- FC (Staphylococcus aureus [6]): 1.5
- MIC (Enterococcus faecium [7]): 1 µg/mL (≈ 2.11 µM)
- MIC (Staphylococcus aureus [8]): 1 µg/mL (≈ 2.11 µM)
- MIC50 (Streptococcus pneumoniae [9]): 0.25 µg/mL (≈ 0.528 µM)
- MIC90 (Streptococcus pneumoniae [9]): 0.5 µg/mL (≈ 1.06 µM)
- MIC50 (Enterococcus faecalis [10]): 1 µg/mL (≈ 2.11 µM)
- MIC90 (Enterococcus faecalis [10]): 2 µg/mL (≈ 4.22 µM)
- MIC50 (Escherichia coli): > 64 µg/mL
- MIC90 (Escherichia coli): > 64 µg/mL
- MIC50 (Enterococcus faecium [11]): 1 µg/mL (≈ 2.11 µM)
- MIC90 (Enterococcus faecium [11]): 2 µg/mL (≈ 4.22 µM)
- MIC50 (Citrobacter freundii): > 64 µg/mL
- MIC90 (Citrobacter freundii): > 64 µg/mL
- MIC50 (Klebsiella pneumoniae [12]): > 64 µg/mL
- MIC90 (Klebsiella pneumoniae [12]): > 64 µg/mL
- MIC (Streptococcus pneumoniae [13]): 0.125 µg/mL (≈ 0.264 µM)
- MIC50 (Klebsiella aerogenes): > 64 µg/mL
- MIC90 (Klebsiella aerogenes): > 64 µg/mL
- MIC50 (Streptococcus pneumoniae [14]): 0.25 µg/mL (≈ 0.528 µM)
- MIC90 (Streptococcus pneumoniae [14]): 0.5 µg/mL (≈ 1.06 µM)
- MIC50 (Morganella morganii): > 64 µg/mL
- MIC90 (Morganella morganii): > 64 µg/mL
- FC (Streptococcus pneumoniae [15]): 1.5
- MIC (Enterococcus faecium [16]): 4 µg/mL (≈ 8.45 µM)
- MIC50 (Enterococcus faecalis [17]): 1 µg/mL (≈ 2.11 µM)
- MIC90 (Enterococcus faecalis [17]): 2 µg/mL (≈ 4.22 µM)
- MIC50 (Legionella pneumophila): 1 µg/mL (≈ 2.11 µM)
- MIC90 (Legionella pneumophila): 2 µg/mL (≈ 4.22 µM)
- MIC (Enterococcus faecium [18]): 1 µg/mL (≈ 2.11 µM)
- MIC50 (Pseudomonas aeruginosa): > 64 µg/mL
- MIC90 (Pseudomonas aeruginosa): > 64 µg/mL
- MIC50 [19]: 0.12 µg/mL (≈ 0.253 µM)
- MIC90 [19]: 0.25 µg/mL (≈ 0.528 µM)
- MIC (Enterococcus faecalis [20]): 16 µg/mL (≈ 33.8 µM)
- MIC50 (Staphylococcus): 1 µg/mL (≈ 2.11 µM)
- MIC90 (Staphylococcus): 2 µg/mL (≈ 4.22 µM)
- MIC50 (Enterococcus faecium [21]): 1 µg/mL (≈ 2.11 µM)
- MIC90 (Enterococcus faecium [21]): 2 µg/mL (≈ 4.22 µM)
- MIC (Staphylococcus aureus [22]): 16 µg/mL (≈ 33.8 µM)
- MIC50 (Neisseria sp.): 4 µg/mL (≈ 8.45 µM)
- MIC90 (Neisseria sp.): 8 µg/mL (≈ 16.9 µM)
- MIC50 (Acinetobacter sp.): > 64 µg/mL
- MIC90 (Acinetobacter sp.): > 64 µg/mL
- MIC50 (Klebsiella pneumoniae [23]): > 64 µg/mL
- MIC90 (Klebsiella pneumoniae [23]): > 64 µg/mL
- MIC50 (Staphylococcus aureus [24]): 0.5 µg/mL (≈ 1.06 µM)
- MIC90 (Staphylococcus aureus [24]): 0.5 µg/mL (≈ 1.06 µM)
- MIC50 (Staphylococcus aureus [25]): 0.5 µg/mL (≈ 1.06 µM)
- MIC90 (Staphylococcus aureus [25]): 1 µg/mL (≈ 2.11 µM)
- FC (Enterococcus faecium [26]): 1.5
- MIC (Staphylococcus aureus [27]): 16 µg/mL (≈ 33.8 µM)
- MIC50 (Providencia rettgeri): > 64 µg/mL
- MIC90 (Providencia rettgeri): > 64 µg/mL
- MIC50 (Serratia marcescens): > 64 µg/mL
- MIC90 (Serratia marcescens): > 64 µg/mL
- MIC50 (Citrobacter koseri): > 64 µg/mL
- MIC90 (Citrobacter koseri): > 64 µg/mL
- MIC (Listeria monocytogenes): 4 µg/mL (≈ 8.45 µM)
- MIC50 (Listeria monocytogenes): 4 µg/mL (≈ 8.45 µM)
- MIC90 (Listeria monocytogenes): 8 µg/mL (≈ 16.9 µM)
- MIC (Streptococcus pyogenes [28]): 0.5 µg/mL (≈ 1.06 µM)
- MIC50 (Streptococcus pyogenes [28]): 0.5 µg/mL (≈ 1.06 µM)
- MIC90 (Streptococcus pyogenes [28]): 1 µg/mL (≈ 2.11 µM)
- MIC (Enterococcus faecalis [29]): 1 µg/mL (≈ 2.11 µM)
- MIC50 (Moraxella catarrhalis): 2 µg/mL (≈ 4.22 µM)
- MIC90 (Moraxella catarrhalis): 4 µg/mL (≈ 8.45 µM)
- MIC50 (Haemophilus influenzae): 4 µg/mL (≈ 8.45 µM)
- MIC90 (Haemophilus influenzae): 8 µg/mL (≈ 16.9 µM)
- MIC50 (Proteus mirabilis): > 64 µg/mL
- MIC90 (Proteus mirabilis): > 64 µg/mL
- MIC (Streptococcus pyogenes [30]): 0.25 µg/mL (≈ 0.528 µM)
- MIC (Enterococcus faecium [31]): 8 µg/mL (≈ 16.9 µM)
- MIC50 (Shigella sp.): > 64 µg/mL
- MIC90 (Shigella sp.): > 64 µg/mL
- MIC50 (Corynebacterium sp.): 1 µg/mL (≈ 2.11 µM)
- MIC90 (Corynebacterium sp.): 1 µg/mL (≈ 2.11 µM)
- MIC (Staphylococcus aureus [32]): 1 µg/mL (≈ 2.11 µM)
- MIC50 (Burkholderia cepacia): > 64 µg/mL
- MIC90 (Burkholderia cepacia): > 64 µg/mL
- MIC50 (Enterobacter cloacae): > 64 µg/mL
- MIC90 (Enterobacter cloacae): > 64 µg/mL
- MIC50 [33]: > 64 µg/mL
- MIC90 [33]: > 64 µg/mL
- MIC50 (Proteus vulgaris): > 64 µg/mL
- MIC90 (Proteus vulgaris): > 64 µg/mL
- MIC50 (Salmonella sp.): > 64 µg/mL
- MIC90 (Salmonella sp.): > 64 µg/mL
